For 9 molecules, IC50 and Kd results are on record in BindingDB's records for PubMed 34146913 (National Institute of Pharmaceutical Education and Research …, 2021).

One assay is described as follows: Inhibition of DC-SIGN extracellular domain (unknown origin) expressed in Escherichia coli DE3(BL21) incubated for 1 hrs in presence of Man-Fl-BSA by high-throughput fluorescence-based assay.
As usually defined, the IC50 is the point on the concentration scale where inhibition reaches its midpoint. For the molecule `CCC(=O)Nc1nc(C)c(-c2csc(Nc3ccc(N(C)C)cc3)n2)s1`, the half-inhibitory concentration (IC50) came out at 1.6 µM.

With `O=C1Nc2cc(C(=O)N3CCN(c4ccccc4)CC3)ccc2NC1CSCc1c(F)cccc1Cl` (centres undefined), the IC50 amounted to 7.3 µM.

For the molecule `Cc1ccc(N(C)S(=O)(=O)c2ccc3[nH]cc(C(=O)N4CCN(c5ccccc5)CC4)c(=O)c3c2)cc1C`, the IC50 was 6.1 µM.

As to `COC(=O)c1ccc(-c2ccc(/C=C3\C(=O)N(c4ccc(S(N)(=O)=O)cc4)N=C3C(F)(F)F)o2)cc1`, the IC50 was determined as 32 µM.

As to `CN1CCN(c2ccc(/C=C3\Sc4ccccc4C3=O)cc2[N+](=O)[O-])CC1`, the IC50 worked out at 10 µM.

Consider `COc1ccccc1N1CCN(C(=O)c2ccc3c(c2)NC(=O)C(CCCc2ccccc2C)N3)CC1` (centres undefined), for which the concentration for half-maximal inhibition (IC50) came to 4.4 µM.

Turning to `NOC(=O)c1ccc(CCCC2Nc3ccc(C(=O)N4CCN(c5ncccn5)CC4)cc3NC2=O)cc1` (centres undefined), the concentration for half-maximal inhibition (IC50) was found to be 2.6 µM.

A short description of a further assay: Inhibition of DC-SIGN extracellular domain (unknown origin) by SPR analysis. In general terms: In SPR one partner is held on a chip, and binding of the other changes the refractive index at the surface.
Broadly, the Kd is the equilibrium constant for the complex coming apart. A lower Kd goes with higher affinity. The molecule `N=c1c(C(=O)NCCc2cn3c(n2)SCC3)cnc2sccn12` displayed a Kd of 400 µM.

In turn, `O=C(NCCc1c[nH]c2ccccc12)c1c(O)nc2sccn2c1=O` yielded a Kd of 180 µM.
